Assay results as given in patent US9475819B2, “Substituted 7-azabicycles and their use as orexin receptor modulators” (Janssen Pharmaceutica NV, priority 2013, dated 2016).

Key:
[1] = molecular target: human orexin 1 receptor (Homo sapiens (Human), UniProt O43613); assay: Human orexin 1 receptor radioligand binding ([3H]-SB674042 competition, CHO cells); settings: [3H]-SB674042 competition binding, read-out: hOX1 Ki
[2] = molecular target: human orexin 2 receptor (Homo sapiens (Human), UniProt O43614); assay: Human orexin 2 receptor radioligand binding ([3H]-EMPA competition, HEK293 cells); settings: [3H]-EMPA competition binding, read-out: hOX2 Ki
Chain of human orexin 2 receptor (O43614 whole entry): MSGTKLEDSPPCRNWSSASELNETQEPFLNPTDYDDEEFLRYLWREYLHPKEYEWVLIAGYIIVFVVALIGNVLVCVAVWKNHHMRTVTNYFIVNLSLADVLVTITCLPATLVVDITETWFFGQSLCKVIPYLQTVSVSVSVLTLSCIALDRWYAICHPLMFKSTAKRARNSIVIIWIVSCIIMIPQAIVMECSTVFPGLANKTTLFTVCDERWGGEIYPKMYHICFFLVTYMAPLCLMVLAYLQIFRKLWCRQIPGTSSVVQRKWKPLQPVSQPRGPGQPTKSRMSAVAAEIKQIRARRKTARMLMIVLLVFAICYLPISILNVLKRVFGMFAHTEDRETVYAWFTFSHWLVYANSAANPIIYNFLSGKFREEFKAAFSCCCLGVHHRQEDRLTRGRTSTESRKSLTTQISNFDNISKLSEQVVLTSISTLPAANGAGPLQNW

Chain of human orexin 1 receptor (O43613 whole entry): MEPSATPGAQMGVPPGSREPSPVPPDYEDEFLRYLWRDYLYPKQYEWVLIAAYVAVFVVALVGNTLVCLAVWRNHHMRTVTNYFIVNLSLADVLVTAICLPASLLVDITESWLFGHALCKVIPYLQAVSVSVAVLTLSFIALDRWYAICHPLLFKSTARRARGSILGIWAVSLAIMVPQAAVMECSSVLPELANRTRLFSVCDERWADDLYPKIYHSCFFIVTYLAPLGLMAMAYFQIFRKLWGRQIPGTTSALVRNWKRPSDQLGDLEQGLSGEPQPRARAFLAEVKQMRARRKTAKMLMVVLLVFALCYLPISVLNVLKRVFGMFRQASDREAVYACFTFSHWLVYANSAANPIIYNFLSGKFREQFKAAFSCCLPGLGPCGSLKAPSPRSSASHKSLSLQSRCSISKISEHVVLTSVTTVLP

| Structure (SMILES) | Ki [1] [nM] | Ki [2] [nM] |
| --- | --- | --- |
| Cc1ccc(-n2nccn2)c(C(=O)N2C3CCC2C(Nc2ccc(C(F)(F)F)cn2)C3)n1 (racemic) [Example 187, (±)-(6-methyl-3-(2H-1,2,3-triazol-2-yl)pyridin-2-yl)(2-((5-(trifluoromethyl)pyridin-2-yl)amino)-7-azabicyclo[2.2.1]heptan-7-yl)methanone] | 48 | 620 |
| Cc1ccc(-n2nccn2)c(C(=O)N2[C@H]3CC[C@@H]2[C@@H](COc2ccc(F)cn2)C3)c1 (single isomer, unassigned) [Example 10B] | – | 5150 |
